{"source": "patent US11807625B2", "about": "“Capsid inhibitors for the prevention of HIV” (Gilead Sciences, Inc., priority 2019, dated 2023)", "assay": "PK of compound of Formula (Ia) after single intramuscular dose of solution formulations in Wistar Han rats", "format": "in vivo", "details": "for Plasma concentration: 0 h; for Plasma concentration / concentration at 48 h / concentration at 1 h / concentration at 24 h / concentration at 72 h / concentration at 96 h / concentration at 168 h / concentration at 3 h / concentration at 8 h: IM 100 mg/kg; for concentration at 48 h / concentration at 1 h / concentration at 24 h / concentration at 72 h / concentration at 96 h / concentration at 168 h / AUC(0-t) / concentration at 3 h / concentration at 8 h: Wistar Han, rat, plasma, 100 mg/kg; for concentration at 48 h / concentration at 1 h / concentration at 24 h / concentration at 72 h / concentration at 96 h / concentration at 168 h / concentration at 3 h / concentration at 8 h: intramuscular; for AUC(0-t): im, single IM 100 mg/kg, male Wistar Han rats, mean ± SD", "protocol": "Formulations containing the compound of Formula (Ia), or a pharmaceutically acceptable salt thereof, were prepared as solutions and optionally administered subcutaneously or intramuscularly to rats, rabbits, and/or dogs.\nA solution of about 400 mg/ml of the compound of Formula (Ia) having 21.13 w/w % water, 45.25 w/w % PEG 300, and 33.61 w/w % of a sodium salt of a compound of Formula (Ia) was prepared. The solution was administered intramuscularly to Wistar Han rats at a dose of about 100 mg/kg and beagle dogs at a dose of about 30 mg/kg.\nA solution of about 400 mg/ml of the compound of Formula (Ia) having 19.18 w/w % water, 41.09 w/w % PEG 300, 33.61 w/w % of a sodium salt of a compound of Formula (Ia), and 6.12 w/w % poloxamer 188 was prepared. The solution was administered intramuscularly to Wistar Han rats at a dose of about 100 mg/kg and beagle dogs at a dose of about 30 mg/kg.\nA solution of about 500 mg/ml of the compound of Formula (Ia) having 16.93 w/w % water, 36.22 w/w % PEG 300, 41.85 w/w % of a sodium salt of a compound of Formula (Ia), and 5.00% ethanol was prepared. The solution was administered intramuscularly to Wistar Han rats at a dose of about 100 mg/kg and beagle dogs at a dose of about 30 mg/kg.\nA solution of about 500 mg/ml of the compound of Formula (Ia) having 14.50 w/w % water, 31.04 w/w % PEG 300, 41.85 w/w % of a sodium salt of a compound of Formula (Ia), 5.00% ethanol, and 7.61 w/w % poloxamer 188 was prepared. The solution was administered intramuscularly to Wistar Han rats at a dose of about 100 mg/kg and beagle dogs at a dose of about 30 mg/kg.", "key": {"[1]": {"details": "Solution H (~400 mg/mL), Wistar Han rats, mean, n = 4, read-out: Plasma concentration, Mean"}, "[2]": {"details": "Solution K (~500 mg/mL, ethanol), Wistar Han rats, individual animals #1-#4, read-out: Plasma concentration"}, "[3]": {"details": "Solution K (~500 mg/mL, ethanol), Wistar Han rats, mean, n = 4, read-out: Plasma concentration, Mean"}, "[4]": {"details": "male, individual rats, solution M, 500 mg/mL, read-out: Plasma concentration"}, "[5]": {"details": "male, mean, n = 4 rats, solution M, 500 mg/mL, read-out: Plasma concentration"}, "[6]": {"details": "male, Solution H (~400 mg/mL), Wistar Han rats, mean, n = 4, read-out: Plasma concentration, Mean"}, "[7]": {"details": "male, Solution J (~400 mg/mL, poloxamer 188), Wistar Han rats, individual animals #1-#4, read-out: Plasma concentration"}, "[8]": {"details": "male, Solution J (~400 mg/mL, poloxamer 188), Wistar Han rats, mean, n = 4, read-out: Plasma concentration, Mean"}, "[9]": {"details": "male, Solution K (~500 mg/mL, ethanol), Wistar Han rats, individual animals #1-#4, read-out: Plasma concentration"}, "[10]": {"details": "male, Solution K (~500 mg/mL, ethanol), Wistar Han rats, mean, n = 4, read-out: Plasma concentration, Mean"}}, "note": "Read-outs that look alike come from different tables or passages of the source.", "data": [{"compound": "CC(C)(C#Cc1ccc(-c2ccc(Cl)c3c(NS(C)(=O)=O)nn(CC(F)(F)F)c23)c([C@H](Cc2cc(F)cc(F)c2)NC(=O)Cn2nc(C(F)(F)F)c3c2C(F)(F)[C@@H]2C[C@H]32)n1)S(C)(=O)=O", "note": "[compound of Formula (Ia)]", "values": [{"measurement": "Plasma concentration", "setting": "individual rats, solution M, 500 mg/mL", "result": "BLQ"}, {"measurement": "Plasma concentration", "setting": "Solution H (~400 mg/mL), Wistar Han rats, individual animals #1-#4", "result": "BLQ"}, {"measurement": "Plasma concentration", "setting": "Solution J (~400 mg/mL, poloxamer 188), Wistar Han rats, individual animals #1-#4", "result": "BLQ"}, {"measurement": "Plasma concentration", "setting": "Solution K (~500 mg/mL, ethanol), Wistar Han rats, individual animals #1-#4", "result": "BLQ"}, {"measurement": "concentration at 48 h", "setting": "Solution H (~400 mg/mL), Wistar Han rats, individual animals #1-#4, read-out: Plasma concentration", "result": 354, "unit": "nM"}, {"measurement": "concentration at 1 h", "setting": "[1]", "result": 150, "unit": "nM"}, {"measurement": "concentration at 24 h", "setting": "[1]", "result": 439, "unit": "nM"}, {"measurement": "concentration at 48 h", "setting": "[1]", "result": 471, "unit": "nM"}, {"measurement": "concentration at 72 h", "setting": "[1]", "result": 397, "unit": "nM"}, {"measurement": "concentration at 96 h", "setting": "[1]", "result": 477, "unit": "nM"}, {"measurement": "concentration at 168 h", "setting": "[1]", "result": 588, "unit": "nM"}, {"measurement": "concentration at 72 h", "setting": "[2]", "result": 516, "unit": "nM"}, {"measurement": "concentration at 96 h", "setting": "[2]", "result": 537, "unit": "nM"}, {"measurement": "concentration at 168 h", "setting": "[2]", "result": 640, "unit": "nM"}, {"measurement": "concentration at 1 h", "setting": "[3]", "result": 146, "unit": "nM"}, {"measurement": "concentration at 72 h", "setting": "[3]", "result": 433, "unit": "nM"}, {"measurement": "concentration at 96 h", "setting": "[3]", "result": 401, "unit": "nM"}, {"measurement": "concentration at 168 h", "setting": "[3]", "result": 507, "unit": "nM"}, {"measurement": "AUC(0-t)", "setting": "male, Solution H (~400 mg/mL; Na salt, water, PEG 300), n = 4, read-out: AUC0-24h", "result": "7.59 ± 2.93", "unit": "µM·h"}, {"measurement": "AUC(0-t)", "setting": "male, Solution H (~400 mg/mL; Na salt, water, PEG 300), n = 4, read-out: AUC0-168h", "result": "77.7 ± 26.1", "unit": "µM·h"}, {"measurement": "AUC(0-t)", "setting": "male, Solution J (~400 mg/mL; Na salt, water, PEG 300, poloxamer 188), n = 4, read-out: AUC0-24h", "result": "12.1 ± 1.9", "unit": "µM·h"}, {"measurement": "AUC(0-t)", "setting": "male, Solution J (~400 mg/mL; Na salt, water, PEG 300, poloxamer 188), n = 4, read-out: AUC0-168h", "result": "82.5 ± 8.7", "unit": "µM·h"}, {"measurement": "AUC(0-t)", "setting": "male, Solution K (~500 mg/mL; Na salt, water, PEG 300, ethanol), n = 4, read-out: AUC0-24h", "result": "6.13 ± 1.7", "unit": "µM·h"}, {"measurement": "AUC(0-t)", "setting": "male, Solution K (~500 mg/mL; Na salt, water, PEG 300, ethanol), n = 4, read-out: AUC0-168h", "result": "67.4 ± 15.7", "unit": "µM·h"}, {"measurement": "AUC(0-t)", "setting": "male, Solution M (~500 mg/mL; Na salt, water, PEG 300, ethanol, poloxamer 188), n = 4, read-out: AUC0-24h", "result": "13.4 ± 2.4", "unit": "µM·h"}, {"measurement": "AUC(0-t)", "setting": "male, Solution M (~500 mg/mL; Na salt, water, PEG 300, ethanol, poloxamer 188), n = 4, read-out: AUC0-168h", "result": "92.9 ± 9.6", "unit": "µM·h"}, {"measurement": "concentration at 1 h", "setting": "[4]", "result": 177, "unit": "nM"}, {"measurement": "concentration at 1 h", "setting": "[5]", "result": 184, "unit": "nM"}, {"measurement": "concentration at 3 h", "setting": "[4]", "result": 304, "unit": "nM"}, {"measurement": "concentration at 3 h", "setting": "[5]", "result": 405, "unit": "nM"}, {"measurement": "concentration at 8 h", "setting": "[4]", "result": 443, "unit": "nM"}, {"measurement": "concentration at 8 h", "setting": "[5]", "result": 544, "unit": "nM"}, {"measurement": "concentration at 24 h", "setting": "[4]", "result": 737, "unit": "nM"}, {"measurement": "concentration at 24 h", "setting": "[5]", "result": 750, "unit": "nM"}, {"measurement": "concentration at 48 h", "setting": "[4]", "result": 623, "unit": "nM"}, {"measurement": "concentration at 48 h", "setting": "[5]", "result": 622, "unit": "nM"}, {"measurement": "concentration at 72 h", "setting": "[5]", "result": 426, "unit": "nM"}, {"measurement": "concentration at 96 h", "setting": "[4]", "result": 593, "unit": "nM"}, {"measurement": "concentration at 96 h", "setting": "[5]", "result": 526, "unit": "nM"}, {"measurement": "concentration at 168 h", "setting": "[4]", "result": 504, "unit": "nM"}, {"measurement": "concentration at 168 h", "setting": "[5]", "result": 560, "unit": "nM"}, {"measurement": "concentration at 3 h", "setting": "male, Solution H (~400 mg/mL), Wistar Han rats, individual animals #1-#4, read-out: Plasma concentration", "result": 179, "unit": "nM"}, {"measurement": "concentration at 3 h", "setting": "[6]", "result": 245, "unit": "nM"}, {"measurement": "concentration at 8 h", "setting": "[6]", "result": 285, "unit": "nM"}, {"measurement": "concentration at 3 h", "setting": "[7]", "result": 463, "unit": "nM"}, {"measurement": "concentration at 8 h", "setting": "[7]", "result": 510, "unit": "nM"}, {"measurement": "concentration at 24 h", "setting": "[7]", "result": 761, "unit": "nM"}, {"measurement": "concentration at 48 h", "setting": "[7]", "result": 716, "unit": "nM"}, {"measurement": "concentration at 72 h", "setting": "[7]", "result": 526, "unit": "nM"}, {"measurement": "concentration at 96 h", "setting": "[7]", "result": 506, "unit": "nM"}, {"measurement": "concentration at 168 h", "setting": "[7]", "result": 481, "unit": "nM"}, {"measurement": "concentration at 1 h", "setting": "[8]", "result": 249, "unit": "nM"}, {"measurement": "concentration at 3 h", "setting": "[8]", "result": 445, "unit": "nM"}, {"measurement": "concentration at 8 h", "setting": "[8]", "result": 507, "unit": "nM"}, {"measurement": "concentration at 24 h", "setting": "[8]", "result": 605, "unit": "nM"}, {"measurement": "concentration at 48 h", "setting": "[8]", "result": 558, "unit": "nM"}, {"measurement": "concentration at 72 h", "setting": "[8]", "result": 452, "unit": "nM"}, {"measurement": "concentration at 96 h", "setting": "[8]", "result": 461, "unit": "nM"}, {"measurement": "concentration at 168 h", "setting": "[8]", "result": 467, "unit": "nM"}, {"measurement": "concentration at 24 h", "setting": "[9]", "result": 438, "unit": "nM"}, {"measurement": "concentration at 48 h", "setting": "[9]", "result": 439, "unit": "nM"}, {"measurement": "concentration at 3 h", "setting": "[10]", "result": 209, "unit": "nM"}, {"measurement": "concentration at 8 h", "setting": "[10]", "result": 218, "unit": "nM"}, {"measurement": "concentration at 24 h", "setting": "[10]", "result": 361, "unit": "nM"}, {"measurement": "concentration at 48 h", "setting": "[10]", "result": 376, "unit": "nM"}]}]}
